Assay results from US20220409681A1, “LACTOBACILLUS SALIVARIUS LS97 AND APPLICATION THEREOF” (WECARE PROBIOTICS CO., LTD., priority 2019, published 2022).

Assays:
[1] = Rat dental caries model: body weight; type: in vivo, Wistar rats
Method: (§1) SPF female Wistar rats (about 3 weeks old) were obtained and housed in a barrier environment with constant temperature and humidity, with 12 h of light and 12 h of darkness. All rats were acclimated to the environment and diet in a week before experiment, and then were randomly divided into groups according to body weight. The rats were randomly divided into 4 groups according to body weight with 10 rats in each group, among which one group was set as the blank control group (blank group), one group was set as the dental caries model group (dental caries group), and two groups were set as the intervention group. The intervention groups were wiped S. sobrinus continuously for 7 days, and after confirming that S. sobrinus was successfully colonized in the rat's oral cavity, the corresponding experimental groups were wiped chlorhexidine (chlorhexidine group) and LS97 (LS97 group) continuously for 7 days respectively, and then 3 times a week. Chlorhexidine, an ionic drug with good antibacterial effect, was used as a positive control group. The cariogenic bacteria S. sobrinus and LS97 were both cultured overnight for 12 h. After adjusted to a bacterial concentration of 1×10^8 CFU/mL, 0.2 mL of bacterial suspension was wiped onto the rat molars by sterile cotton swab, and namely, the cotton swab that absorbed bacterial suspension sufficiently worked on each quarter of the rat's oral teeth for the same 15 s. During the experiment, except for the blank control group fed normal feed and drinking water, other groups were all fed cariogenic feed Diet 2000# and drinking water added with 5% sucrose, in which the main components of cariogenic feed are shown in Table 4. The experimental period was maintained for 10 weeks.

Streptococcus sobrinus = experiment: Rat dental caries model: oral S. sobrinus count and Keyes caries score; type: in vivo, Wistar rats
Method: as §1
At the 3rd, 7th, and 10th weeks of the experiment (corresponding to the early, middle and late stages of the experiment, respectively), the first, second and third samplings were performed on the oral teeth of rats, and samples were spread on MRS solid medium added with vancomycin of 12 μg/mL for Streptococcus sobrinus count.
After the rat experiment was finished, the rats were killed and the rat molars were taken out. The molars were placed in a 0.4% murexide dye liquor and soaked for 12 h overnight for dyeing. After the molars were rinsed by clean water and dried naturally, the caries lesion condition of rat molars in each group was observed under a stereo microscope. Caries scoring was performed on the rat teeth by using the Keyes caries scoring method. According to Keyes' classic method for evaluating dental caries, the lesion degree of dental caries is divided into four grades: E-grade caries, caries lesion involving enamel only; Ds-grade caries, enamel caries lesion and caries lesion involving the outer dentin less than ¼; Dm-grade caries, caries lesion involving the dentin thickness within ¼ to ¾; Dx-grade caries, caries lesion involving the dentin thickness more than ¾, and the result is shown in FIG. 4.

[2] = Keyes caries scoring, FIG. 4, versus dental caries model group

[H]/N=C(\N/C(=N/[H])NCCCCCCNC(=N)NC(=N)Nc1ccc(Cl)cc1)Nc1ccc(Cl)cc1 [Chlorhexidine]
Body weight of rats after the experiment ([1]; 10 weeks): 212.49 ± 23.86 g | Rat body weight increment ([1]; 10 weeks): 147.83 ± 19.73 g | Body weight of rats before the experiment ([1]; baseline): 60.32 ± 5.28 g | Effect on Dm caries (in words) (Streptococcus sobrinus; [2]): not obvious | Effect on E caries and Ds caries (in words) (Streptococcus sobrinus; [2]): effectively reduced | Change of the number of Streptococcus sobrinus in the oral cavity (in words) (Streptococcus sobrinus; after intervention, chlorhexidine statement refers to the third test): showed an increment circumstance | Count of Streptococcus sobrinus in oral sampling (Streptococcus sobrinus; sampling number 1, 3rd week): 5.53 ± 0.23 Log value | Count of Streptococcus sobrinus in oral sampling (Streptococcus sobrinus; sampling number 2, 7th week): 4.00 ± 0.19 Log value | Count of Streptococcus sobrinus in oral sampling (Streptococcus sobrinus; sampling number 3, 10th week): 4.31 ± 0.13 Log value
